Experimental data from ChEMBL document CHEMBL1201862, “PubChem BioAssay data set” (2004).
Calls of active or inactive are those of the source.

Key:
[1] = target: T1, High affinity choline transporter 1 (Homo sapiens, UniProt Q9GZV3); test: human choline transporter blockers, potency – cell-based, 5-point CRC, membrane potential dye, dose response (AID 504840); type: functional
T1 sequence (Q9GZV3 whole entry): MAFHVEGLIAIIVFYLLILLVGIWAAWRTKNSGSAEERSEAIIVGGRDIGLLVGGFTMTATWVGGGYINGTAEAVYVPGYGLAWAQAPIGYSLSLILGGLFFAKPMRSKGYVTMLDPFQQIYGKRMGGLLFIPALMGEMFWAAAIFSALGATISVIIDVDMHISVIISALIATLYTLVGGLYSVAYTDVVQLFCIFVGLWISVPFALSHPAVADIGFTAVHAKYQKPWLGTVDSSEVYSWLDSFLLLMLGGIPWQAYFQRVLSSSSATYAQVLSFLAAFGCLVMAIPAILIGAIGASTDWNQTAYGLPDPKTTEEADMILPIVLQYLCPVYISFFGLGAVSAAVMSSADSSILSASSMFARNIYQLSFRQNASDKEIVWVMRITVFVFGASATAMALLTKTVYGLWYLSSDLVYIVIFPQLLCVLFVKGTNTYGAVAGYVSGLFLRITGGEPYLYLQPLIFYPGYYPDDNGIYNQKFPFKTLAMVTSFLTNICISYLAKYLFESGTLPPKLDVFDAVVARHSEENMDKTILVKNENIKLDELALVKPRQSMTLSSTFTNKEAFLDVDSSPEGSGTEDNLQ

[2] = target: T2, Rac GTPase-activating protein 1 (Homo sapiens, UniProt Q9H0H5); test: blockers of MgcRacGAP-driven Rac1 GTP hydrolysis – biochemical, ADP Hunter fluorescence, primary and confirmatory, confirmation (AID 624330); type: functional
T2 sequence (Q9H0H5 whole entry): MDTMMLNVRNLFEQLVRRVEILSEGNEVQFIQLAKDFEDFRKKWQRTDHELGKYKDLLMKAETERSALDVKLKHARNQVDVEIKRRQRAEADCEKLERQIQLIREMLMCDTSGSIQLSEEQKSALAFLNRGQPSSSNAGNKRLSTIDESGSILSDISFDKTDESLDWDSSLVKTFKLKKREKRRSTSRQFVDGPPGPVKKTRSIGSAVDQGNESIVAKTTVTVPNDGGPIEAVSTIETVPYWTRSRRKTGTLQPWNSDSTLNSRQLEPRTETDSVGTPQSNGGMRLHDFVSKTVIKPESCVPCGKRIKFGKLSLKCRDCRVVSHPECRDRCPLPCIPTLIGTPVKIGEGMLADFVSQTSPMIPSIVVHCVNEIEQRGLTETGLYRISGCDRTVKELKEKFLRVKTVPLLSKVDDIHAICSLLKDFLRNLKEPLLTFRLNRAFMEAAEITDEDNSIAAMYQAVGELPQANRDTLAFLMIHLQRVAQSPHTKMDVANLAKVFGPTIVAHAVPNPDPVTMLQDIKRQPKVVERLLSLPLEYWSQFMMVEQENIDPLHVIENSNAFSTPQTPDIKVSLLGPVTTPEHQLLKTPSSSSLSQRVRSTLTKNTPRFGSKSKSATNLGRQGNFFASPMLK

[3] = target: T3, Short transient receptor potential channel 4 (Mus musculus, UniProt Q9QUQ5); test: calcium entry via TRPC4 opening agents – cell-based, HEK293 TRPC4/mu-opioid, Fluo-4 calcium, dose response (AID 434937); type: functional
T3 sequence (Q9QUQ5 whole entry): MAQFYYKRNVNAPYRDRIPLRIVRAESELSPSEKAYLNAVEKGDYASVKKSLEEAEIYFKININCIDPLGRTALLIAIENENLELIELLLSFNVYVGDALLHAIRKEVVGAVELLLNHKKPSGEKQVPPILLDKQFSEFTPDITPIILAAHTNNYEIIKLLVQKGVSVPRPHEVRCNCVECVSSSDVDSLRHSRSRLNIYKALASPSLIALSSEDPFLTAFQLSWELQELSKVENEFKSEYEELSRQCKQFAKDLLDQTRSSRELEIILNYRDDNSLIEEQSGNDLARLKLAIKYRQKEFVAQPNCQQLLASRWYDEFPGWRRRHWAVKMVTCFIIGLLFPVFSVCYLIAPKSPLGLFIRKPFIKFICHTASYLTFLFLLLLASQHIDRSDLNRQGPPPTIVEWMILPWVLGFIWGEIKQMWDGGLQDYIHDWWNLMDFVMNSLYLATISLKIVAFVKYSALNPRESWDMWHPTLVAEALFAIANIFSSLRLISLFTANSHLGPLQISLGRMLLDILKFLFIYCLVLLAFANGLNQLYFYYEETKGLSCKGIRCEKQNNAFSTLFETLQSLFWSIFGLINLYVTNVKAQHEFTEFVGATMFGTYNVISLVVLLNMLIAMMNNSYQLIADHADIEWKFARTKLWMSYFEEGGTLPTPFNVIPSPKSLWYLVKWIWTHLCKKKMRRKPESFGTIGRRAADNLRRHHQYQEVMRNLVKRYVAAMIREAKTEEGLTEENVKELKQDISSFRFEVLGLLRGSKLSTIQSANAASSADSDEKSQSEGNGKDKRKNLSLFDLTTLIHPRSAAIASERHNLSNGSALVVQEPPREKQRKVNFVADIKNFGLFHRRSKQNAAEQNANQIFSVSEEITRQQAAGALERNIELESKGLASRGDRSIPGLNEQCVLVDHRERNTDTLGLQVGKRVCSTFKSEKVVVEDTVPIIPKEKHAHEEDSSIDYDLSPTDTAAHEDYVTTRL

[4] = target: T4, Corticotropin-releasing factor receptor 2/Corticotropin-releasing factor-binding protein (Homo sapiens, UniProt P24387+Q13324); test: Dose Response confirmation of uHTS hits for small molecule antagonists of the CRF-binding protein and CRF-R2 receptor complex.; type: functional; settings: read-out: IC50_Mean
T4 sequence (Q13324 whole entry): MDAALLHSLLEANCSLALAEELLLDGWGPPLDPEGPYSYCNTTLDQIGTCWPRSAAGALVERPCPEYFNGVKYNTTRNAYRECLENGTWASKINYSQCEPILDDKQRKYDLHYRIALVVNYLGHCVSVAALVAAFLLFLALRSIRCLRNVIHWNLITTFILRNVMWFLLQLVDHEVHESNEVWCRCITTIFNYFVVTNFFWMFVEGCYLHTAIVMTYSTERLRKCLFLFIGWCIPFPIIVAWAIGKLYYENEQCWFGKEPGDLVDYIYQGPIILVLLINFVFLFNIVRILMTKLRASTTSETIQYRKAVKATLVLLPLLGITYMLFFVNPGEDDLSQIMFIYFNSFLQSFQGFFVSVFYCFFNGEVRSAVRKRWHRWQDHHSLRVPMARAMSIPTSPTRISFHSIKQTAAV
T4 sequence (P24387 whole entry): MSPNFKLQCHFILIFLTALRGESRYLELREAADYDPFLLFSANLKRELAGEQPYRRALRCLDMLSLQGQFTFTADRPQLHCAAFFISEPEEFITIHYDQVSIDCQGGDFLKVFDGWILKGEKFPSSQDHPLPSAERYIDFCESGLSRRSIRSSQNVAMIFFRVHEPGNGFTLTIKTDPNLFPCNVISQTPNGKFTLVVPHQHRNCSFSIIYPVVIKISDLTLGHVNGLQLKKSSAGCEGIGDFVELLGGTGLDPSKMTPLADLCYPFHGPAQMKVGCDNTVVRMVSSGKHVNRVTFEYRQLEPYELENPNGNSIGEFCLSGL

[5] = target: T4, Corticotropin-releasing factor receptor 2/Corticotropin-releasing factor-binding protein; test: activators of CRF receptor 2 with binding protein – uHTS hits, confirmation (AID 602473); type: functional; settings: read-out: EC50_Mean
[6] = test system: Streptococcus sp. 'group A'; test: Streptococcus pyogenes SK(-)GAS viability under kanamycin – luminescence, BacTiterGlo, confirmation, counter-screen for streptokinase expression inhibitor project, dose response (AID 1900); type: functional, organism-based
Streptokinase A = target: T5, Streptokinase A (Streptococcus pyogenes serotype M1, UniProt P10520); test: viability-normalized secreted streptokinase activity reduction – plasminogen activation absorbance, OD405, dose response (AID 1914); type: functional, Streptococcus pyogenes M1 GAS;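 further: secreted streptokinase activity via plasminogen activation per viability signal from cell pellet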
T5 sequence (P10520 whole entry): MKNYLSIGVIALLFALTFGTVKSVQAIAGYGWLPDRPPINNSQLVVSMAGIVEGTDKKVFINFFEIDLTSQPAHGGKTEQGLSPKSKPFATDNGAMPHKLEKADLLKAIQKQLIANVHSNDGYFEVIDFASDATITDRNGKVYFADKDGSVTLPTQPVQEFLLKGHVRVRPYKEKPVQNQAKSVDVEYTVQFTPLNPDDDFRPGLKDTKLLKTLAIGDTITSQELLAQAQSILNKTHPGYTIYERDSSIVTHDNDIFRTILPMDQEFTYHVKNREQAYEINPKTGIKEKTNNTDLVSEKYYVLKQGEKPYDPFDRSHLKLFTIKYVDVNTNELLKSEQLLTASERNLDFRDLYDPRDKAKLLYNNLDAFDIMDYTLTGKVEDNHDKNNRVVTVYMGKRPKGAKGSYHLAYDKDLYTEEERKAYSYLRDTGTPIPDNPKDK

[7] = Trypanosoma cruzi growth suppression in host cells – NIH3T3 host cells, beta-gal luminescence, confirmation (AID 2044); type: functional, cell-based;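 further: intracellular parasites grown in NIH/3T3 mouse fibroblasts as host cells; luminescent beta-galactosidase reporter signal from transgenic T. cruzi replicating inside host cells; inhibitors lower the luminescence signal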
[8] = NIH3T3 cell viability loss – ATP luminescence, mouse fibroblasts, counter-screen, dose response (AID 2010); type: functional, cell-based;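 further: cells exposed to compound for about 90 hours before reading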
Streptococcus = test: GAS UMAA2166 growth inhibition – luminescence, BacTiterGlo, counter-screen for streptokinase expression inhibitor project, dose response (AID 1915); type: functional, organism-based;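 further: potency for reduction of bacterial viability or growth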
[9] = target: Heat shock protein HSP 90-alpha (Homo sapiens, UniProt P07900); type: functional, organism-based
[10] = general mammalian cell viability loss – inhibitor set, cherry-pick, set 2, cytotoxicity control for miR-122 modulator project, dose response (AID 720697); type: functional, cell-based
[11] = target: Luciferin 4-monooxygenase (Photinus pyralis, UniProt P08659); test: inhibition of purified Photinus pyralis luciferase – biochemical, luminescence, dose response (AID 1891)
[12] = Luminescence Cell-Based Dose Confirmation HTS to Identify Inhibitors of Platelet Dense Granule Release. [Related pubchem assays: 1663 (Primary HTS), 1678 (Summary of Project)]; type: functional

Sequence of Luciferin 4-monooxygenase (P08659 whole entry): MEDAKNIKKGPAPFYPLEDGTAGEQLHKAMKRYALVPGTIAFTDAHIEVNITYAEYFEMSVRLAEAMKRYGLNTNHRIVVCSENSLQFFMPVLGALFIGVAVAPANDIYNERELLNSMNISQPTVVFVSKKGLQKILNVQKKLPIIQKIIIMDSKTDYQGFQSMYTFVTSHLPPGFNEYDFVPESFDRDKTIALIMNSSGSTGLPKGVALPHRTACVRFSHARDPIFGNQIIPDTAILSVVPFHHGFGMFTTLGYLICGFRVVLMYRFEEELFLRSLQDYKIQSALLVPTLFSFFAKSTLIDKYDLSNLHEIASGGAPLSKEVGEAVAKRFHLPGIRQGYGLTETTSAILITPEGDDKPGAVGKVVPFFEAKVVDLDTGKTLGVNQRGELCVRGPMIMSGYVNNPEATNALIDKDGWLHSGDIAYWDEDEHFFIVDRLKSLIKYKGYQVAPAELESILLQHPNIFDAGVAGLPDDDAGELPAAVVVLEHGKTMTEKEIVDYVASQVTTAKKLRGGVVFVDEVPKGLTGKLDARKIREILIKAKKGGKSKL

COc1cccc(CNc2ccc(N3CCC(C)CC3)cc2)c1OC
IC50 [1]: 13.2 µM (active)
IC50 [2]: 7.86 µM (active)

CCc1cc([N+](=O)[O-])cc(CC)c1N
IC50 [1]: 13.8 µM (active)

CCCCN(CC)CCNC(=O)c1cc2cc3ccc(Cl)cc3nc2o1
EC50 [3]: 0.596 µM (active)

COCCN1CC(=O)N(c2cccc(C)c2C)C(c2ccc(Cl)cc2)C1=O (centres undefined)
IC50 [4]: > 47.1 µM (inactive)
EC50 [5]: > 53 µM (inactive)

CCC(C)NC(=O)Cn1cnc2sc(C)c(S(=O)(=O)N3CCCCC3)c2c1=O (centres undefined)
IC50 [4]: > 47.1 µM (inactive)
EC50 [5]: > 53 µM (inactive)

O=[N+]([O-])c1cccc(CSc2nnc3ccccn23)c1
IC50 [1]: 16.6 µM (active)

Cc1nn2c(NCc3ccccn3)cc(C(C)(C)C)nc2c1-c1ccccc1
EC50 [6]: 3.41 µM (active)
EC50 (Streptokinase A): > 150 µM (not active)
EC50 [7]: 2.21 µM (active)
EC50 [8]: > 60 µM (not active)
EC50 (Streptococcus): 5.79 µM (active)
AC50 [9]: 1.78 µM (active)

COc1cc2ccccc2cc1C(=O)Nc1ccc(S(=O)(=O)Nc2cc(C)on2)cc1
IC50 [1]: 13.8 µM (active)

CCOC(=O)C1CN(S(=O)(=O)c2ccccc2)CCN1S(=O)(=O)c1ccccc1 (centres undefined)
AC50 [10]: 1.54 µM (active)

CN(C)C(CNc1ncnc2sc3c(c12)CCCC3)c1ccco1 (centres undefined)
EC50 [3]: 3.35 µM (active)

CCn1cc(/C=C(\NC(=O)c2ccccc2F)C(=O)N2CCOCC2)c2ccccc21
IC50 [1]: 15.6 µM (active)

COc1cc2c(cc1OC)-c1cc(NC3CCCCCC3)nc(=O)n1CC2
EC50 [11]: > 112 µM (not active)
EC50 [12]: 2.94 µM (active)
IC50 [1]: 12.9 µM (active)

Cc1ccc(C(=O)C(SC(C)(C)C)n2cncn2)cc1 (centres undefined)
AC50 [9]: 3.99 µM (active)

Cc1ccc(CNC(=O)C2CCCN(Cc3cnn(-c4ccccc4)c3-n3cccc3)C2)cc1 (centres undefined)
EC50 [3]: 4.73 µM (active)

O=C(COc1ccc(Br)cc1CNC1CCCC1)Nc1ccccc1
EC50 [3]: 5.96 µM (active)

CNCCc1n[nH]c(N)n1
EC50 [3]: 0.0667 µM (active)

COc1ccc(C(CNC(=O)c2ccccc2SC)N(C)C)cc1 (centres undefined)
EC50 [3]: 0.473 µM (active)

COc1ccccc1/C=C/C(=O)N1CCOCC1
IC50 [4]: > 47.1 µM (inactive)
EC50 [5]: > 53 µM (inactive)

COc1ccc(C(CNC(=O)Cc2ccc(Cl)c(Cl)c2)N(C)C)cc1 (centres undefined)
EC50 [3]: 0.299 µM (active)

CCc1nnc(NC(=O)CSc2nnnn2-c2cccc(C(C)=O)c2)s1
IC50 [4]: > 47.1 µM (inactive)
EC50 [5]: > 53 µM (inactive)

CNc1nc(NCC2CCCCC2)c2sccc2n1
AC50 [10]: 3.63 µM (active)

CCCC1CC(C#N)N(N(C)C)C1=C(C#N)C#N (centres undefined)
IC50 [4]: > 47.1 µM (inactive)
EC50 [5]: > 53 µM (inactive)

Cc1ccc(NC(=O)c2ncn(CCCNCC3CCCO3)n2)cc1C (centres undefined)
IC50 [4]: > 47.1 µM (inactive)
EC50 [5]: > 53 µM (inactive)

COC(=O)C[C@@H]1CC[C@H]2[C@@H](COc3ccc(NC(=O)c4ccc(C(F)(F)F)cc4)cc3C(=O)N2C)O1
AC50 [10]: 10 µM (active)

Cc1cccc(NC(=O)Nc2ccc3c(c2)C(=O)N(C)[C@H]2CC[C@H](CC(=O)O)O[C@H]2CO3)c1
AC50 [10]: 10.6 µM (active)
